The target of assay [1] is T1, Eukaryotic translation initiation factor 2-alpha kinase 3 (Homo sapiens, UniProt Q9NZJ5). The experiment in a line: Counterscreen assay for PERK inhibitors: Dose response cell-based high throughput screening assay to measure inhibition of PERK at 6 hours. [Related pubchem assays: 1522, 1416 ]. Type of assay: functional.
The target of assay [2] is T1, Eukaryotic translation initiation factor 2-alpha kinase 3. The experiment in a line: Dose response cell-based high-throughput screening assay to measure PERK inhibition. [Related pubchem assays: 1416 ]. The format is functional.
For assay [3], the target named is T2, Rac GTPase-activating protein 1 (Homo sapiens, UniProt Q9H0H5).
T2 sequence (Q9H0H5 whole entry): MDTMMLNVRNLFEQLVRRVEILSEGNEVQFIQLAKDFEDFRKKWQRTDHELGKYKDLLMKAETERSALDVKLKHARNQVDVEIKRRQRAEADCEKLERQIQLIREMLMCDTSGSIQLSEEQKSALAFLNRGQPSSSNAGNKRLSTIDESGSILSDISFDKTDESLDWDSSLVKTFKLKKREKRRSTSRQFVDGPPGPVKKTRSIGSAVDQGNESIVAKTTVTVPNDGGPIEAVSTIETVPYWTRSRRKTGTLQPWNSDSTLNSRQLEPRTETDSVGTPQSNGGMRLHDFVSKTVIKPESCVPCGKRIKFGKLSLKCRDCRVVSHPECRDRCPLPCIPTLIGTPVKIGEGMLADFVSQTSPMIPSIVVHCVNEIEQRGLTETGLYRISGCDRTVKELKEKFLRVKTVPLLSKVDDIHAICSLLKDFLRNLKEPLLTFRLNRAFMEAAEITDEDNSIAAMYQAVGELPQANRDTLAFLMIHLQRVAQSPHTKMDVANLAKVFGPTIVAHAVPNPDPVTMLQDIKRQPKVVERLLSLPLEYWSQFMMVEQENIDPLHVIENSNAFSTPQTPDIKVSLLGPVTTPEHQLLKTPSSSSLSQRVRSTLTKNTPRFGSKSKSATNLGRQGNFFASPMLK
The assay can be described thus: MgcRacGAP GTPase-activating activity inhibitors, confirmation, biochemical, ADP Hunter fluorescence, primary and confirmatory (AID 624330). Type of assay: functional.

A short description of assay [4]: Luminescence Cell-Based Dose Confirmation HTS to Identify Inhibitors of Polyadenylation. The format is functional.
Assay [5] can be described thus: polyadenylation inhibitors in yeast reporter, dose response, luminescence, S. cerevisiae SKY197-pL101 (AID 2525). The format is functional, cell-based.
Assay [6] has as its system HEK293. The assay can be described thus: inhibitors of LMP1-driven NF-kB reporter, dose response, cell-based, HEK293, luciferase, cherry-pick (AID 588343). As to conditions: Homo sapiens. The format is functional.
For assay [7], the target named is Lysosomal acid glucosylceramidase (Homo sapiens, UniProt P04062). The experiment in a line: Dose response cell-based high throughput screening assay to identify enhancers of beta-glucosidase activity. [Related pubchem assays: 784 ]. The format is functional.
Chain of Lysosomal acid glucosylceramidase (P04062 whole entry): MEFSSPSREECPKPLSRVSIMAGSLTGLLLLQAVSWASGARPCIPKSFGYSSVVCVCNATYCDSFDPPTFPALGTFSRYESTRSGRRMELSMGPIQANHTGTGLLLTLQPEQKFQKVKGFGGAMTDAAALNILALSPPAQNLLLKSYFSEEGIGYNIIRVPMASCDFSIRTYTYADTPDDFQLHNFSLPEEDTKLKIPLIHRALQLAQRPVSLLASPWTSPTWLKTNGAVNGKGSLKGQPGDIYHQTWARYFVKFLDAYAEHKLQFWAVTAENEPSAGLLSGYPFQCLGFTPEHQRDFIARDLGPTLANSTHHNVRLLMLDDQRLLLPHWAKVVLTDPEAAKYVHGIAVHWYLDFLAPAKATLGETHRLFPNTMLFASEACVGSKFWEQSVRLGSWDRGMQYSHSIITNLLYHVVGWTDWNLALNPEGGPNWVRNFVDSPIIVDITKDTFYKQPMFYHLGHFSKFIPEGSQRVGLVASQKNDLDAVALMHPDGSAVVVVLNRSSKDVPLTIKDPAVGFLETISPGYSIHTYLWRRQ
Assay [8] has as its target T3, DNA repair and recombination protein RAD54-like (Homo sapiens, UniProt Q92698).
T3 sequence (Q92698 whole entry): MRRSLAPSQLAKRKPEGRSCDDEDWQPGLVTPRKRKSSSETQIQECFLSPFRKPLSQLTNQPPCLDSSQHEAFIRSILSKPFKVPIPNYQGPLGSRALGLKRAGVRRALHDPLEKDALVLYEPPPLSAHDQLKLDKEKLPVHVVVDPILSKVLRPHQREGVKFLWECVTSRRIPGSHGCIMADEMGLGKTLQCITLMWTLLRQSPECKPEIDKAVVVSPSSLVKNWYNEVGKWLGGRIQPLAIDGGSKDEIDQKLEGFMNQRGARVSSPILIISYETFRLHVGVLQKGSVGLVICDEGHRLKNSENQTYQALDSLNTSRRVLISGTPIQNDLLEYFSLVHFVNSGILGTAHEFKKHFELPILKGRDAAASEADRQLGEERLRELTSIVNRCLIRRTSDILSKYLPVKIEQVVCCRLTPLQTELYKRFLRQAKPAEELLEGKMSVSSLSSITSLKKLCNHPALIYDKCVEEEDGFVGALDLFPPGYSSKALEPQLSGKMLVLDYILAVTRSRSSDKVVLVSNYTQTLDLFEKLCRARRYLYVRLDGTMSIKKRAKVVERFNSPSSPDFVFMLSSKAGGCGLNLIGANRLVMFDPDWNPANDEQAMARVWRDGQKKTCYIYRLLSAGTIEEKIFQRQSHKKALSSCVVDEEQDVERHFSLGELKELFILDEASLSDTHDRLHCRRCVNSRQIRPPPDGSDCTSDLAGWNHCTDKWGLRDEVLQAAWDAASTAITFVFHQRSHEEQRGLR
The assay can be described thus: inhibitors of human RAD54 branch migration, confirmation, biochemical, fluorescence, cherry-picked samples, dose series (AID 651657). Type of assay: functional.

Assay [9] addresses Cytochrome P450 2D6 (Homo sapiens, UniProt P10635).
Assay [10] addresses T4, Cytochrome P450 1A2 (Homo sapiens, UniProt P05177).
T4 sequence (P05177 whole entry): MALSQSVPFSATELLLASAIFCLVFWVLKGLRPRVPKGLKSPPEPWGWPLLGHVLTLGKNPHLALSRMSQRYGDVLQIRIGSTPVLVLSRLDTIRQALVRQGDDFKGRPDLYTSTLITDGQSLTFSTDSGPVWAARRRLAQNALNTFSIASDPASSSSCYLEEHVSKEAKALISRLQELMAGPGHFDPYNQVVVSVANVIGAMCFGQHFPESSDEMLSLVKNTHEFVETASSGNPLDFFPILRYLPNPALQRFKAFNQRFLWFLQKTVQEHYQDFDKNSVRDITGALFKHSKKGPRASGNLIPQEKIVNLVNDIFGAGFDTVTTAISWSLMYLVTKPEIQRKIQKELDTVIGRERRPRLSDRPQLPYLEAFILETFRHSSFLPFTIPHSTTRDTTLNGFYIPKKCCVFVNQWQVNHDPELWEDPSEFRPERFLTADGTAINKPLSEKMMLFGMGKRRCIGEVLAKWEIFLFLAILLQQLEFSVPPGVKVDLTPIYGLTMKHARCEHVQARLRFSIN

In assay [11] the target is T5, Aminopeptidase N (Plasmodium falciparum FcB1/Columbia, UniProt O96935).
T5 sequence (O96935 whole entry): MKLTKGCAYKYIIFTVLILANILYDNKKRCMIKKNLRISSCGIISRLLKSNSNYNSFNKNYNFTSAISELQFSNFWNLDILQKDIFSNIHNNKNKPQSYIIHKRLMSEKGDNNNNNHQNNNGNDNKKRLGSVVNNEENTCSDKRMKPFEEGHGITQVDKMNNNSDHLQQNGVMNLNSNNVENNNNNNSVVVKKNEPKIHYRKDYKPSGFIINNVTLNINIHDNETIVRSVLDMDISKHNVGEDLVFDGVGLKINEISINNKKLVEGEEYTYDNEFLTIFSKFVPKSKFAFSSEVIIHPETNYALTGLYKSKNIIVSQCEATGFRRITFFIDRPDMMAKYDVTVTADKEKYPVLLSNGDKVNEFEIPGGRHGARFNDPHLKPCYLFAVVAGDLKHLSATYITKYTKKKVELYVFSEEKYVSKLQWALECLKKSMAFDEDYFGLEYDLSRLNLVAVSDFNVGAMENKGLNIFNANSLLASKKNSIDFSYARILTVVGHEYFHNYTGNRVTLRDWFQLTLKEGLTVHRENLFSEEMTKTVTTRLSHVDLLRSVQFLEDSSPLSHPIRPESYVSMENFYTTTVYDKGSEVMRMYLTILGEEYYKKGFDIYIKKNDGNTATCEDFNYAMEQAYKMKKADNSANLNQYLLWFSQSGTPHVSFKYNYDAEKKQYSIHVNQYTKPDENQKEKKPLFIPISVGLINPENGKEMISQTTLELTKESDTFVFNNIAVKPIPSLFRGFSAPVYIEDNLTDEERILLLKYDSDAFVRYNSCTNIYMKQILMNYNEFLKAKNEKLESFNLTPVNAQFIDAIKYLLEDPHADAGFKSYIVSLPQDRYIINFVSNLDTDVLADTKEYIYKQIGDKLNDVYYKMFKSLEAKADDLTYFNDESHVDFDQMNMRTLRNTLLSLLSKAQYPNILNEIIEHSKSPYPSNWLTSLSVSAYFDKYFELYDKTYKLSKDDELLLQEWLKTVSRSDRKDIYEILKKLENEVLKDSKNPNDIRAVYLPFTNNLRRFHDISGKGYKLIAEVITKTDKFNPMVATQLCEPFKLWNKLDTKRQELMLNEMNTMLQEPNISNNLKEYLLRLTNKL
The experiment in a line: P. falciparum M1AAP inhibitors, biochemical, fluorogenic H-Leu-NHMec substrate, 1536-well (AID 1445). Further details: species or system Plasmodium falciparum 3D7, 3D7.

Calls of active or inactive are those of the source.

T1 sequence (Q9NZJ5 whole entry): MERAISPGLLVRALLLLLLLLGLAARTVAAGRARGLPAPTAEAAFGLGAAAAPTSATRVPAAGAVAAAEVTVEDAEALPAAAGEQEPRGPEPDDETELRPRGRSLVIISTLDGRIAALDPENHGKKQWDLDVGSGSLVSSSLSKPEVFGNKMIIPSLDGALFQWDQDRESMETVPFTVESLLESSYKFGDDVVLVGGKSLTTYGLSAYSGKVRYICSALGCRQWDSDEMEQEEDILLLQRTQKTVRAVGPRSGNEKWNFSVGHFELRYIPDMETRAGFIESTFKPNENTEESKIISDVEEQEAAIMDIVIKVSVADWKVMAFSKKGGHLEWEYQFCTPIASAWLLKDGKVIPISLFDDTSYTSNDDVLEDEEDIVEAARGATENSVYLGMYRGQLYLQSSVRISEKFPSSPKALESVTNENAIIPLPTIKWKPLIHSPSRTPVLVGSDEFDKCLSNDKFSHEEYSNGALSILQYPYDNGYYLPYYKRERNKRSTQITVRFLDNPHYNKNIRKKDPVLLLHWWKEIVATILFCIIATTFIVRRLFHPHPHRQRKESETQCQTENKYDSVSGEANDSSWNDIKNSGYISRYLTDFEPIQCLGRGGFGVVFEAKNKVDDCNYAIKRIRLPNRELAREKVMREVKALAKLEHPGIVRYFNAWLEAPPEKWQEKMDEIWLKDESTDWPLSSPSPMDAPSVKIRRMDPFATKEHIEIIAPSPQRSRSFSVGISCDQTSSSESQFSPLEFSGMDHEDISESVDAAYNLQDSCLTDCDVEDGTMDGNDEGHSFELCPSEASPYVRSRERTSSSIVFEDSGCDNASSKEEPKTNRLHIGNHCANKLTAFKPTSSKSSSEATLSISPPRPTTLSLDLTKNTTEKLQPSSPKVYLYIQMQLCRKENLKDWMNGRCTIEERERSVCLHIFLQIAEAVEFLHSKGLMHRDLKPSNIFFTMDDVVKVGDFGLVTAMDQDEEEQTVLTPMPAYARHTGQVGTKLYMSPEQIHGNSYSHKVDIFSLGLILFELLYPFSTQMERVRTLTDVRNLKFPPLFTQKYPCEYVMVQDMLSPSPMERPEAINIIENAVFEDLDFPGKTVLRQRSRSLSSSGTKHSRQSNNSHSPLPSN
Chain of Cytochrome P450 2D6 (P10635 whole entry): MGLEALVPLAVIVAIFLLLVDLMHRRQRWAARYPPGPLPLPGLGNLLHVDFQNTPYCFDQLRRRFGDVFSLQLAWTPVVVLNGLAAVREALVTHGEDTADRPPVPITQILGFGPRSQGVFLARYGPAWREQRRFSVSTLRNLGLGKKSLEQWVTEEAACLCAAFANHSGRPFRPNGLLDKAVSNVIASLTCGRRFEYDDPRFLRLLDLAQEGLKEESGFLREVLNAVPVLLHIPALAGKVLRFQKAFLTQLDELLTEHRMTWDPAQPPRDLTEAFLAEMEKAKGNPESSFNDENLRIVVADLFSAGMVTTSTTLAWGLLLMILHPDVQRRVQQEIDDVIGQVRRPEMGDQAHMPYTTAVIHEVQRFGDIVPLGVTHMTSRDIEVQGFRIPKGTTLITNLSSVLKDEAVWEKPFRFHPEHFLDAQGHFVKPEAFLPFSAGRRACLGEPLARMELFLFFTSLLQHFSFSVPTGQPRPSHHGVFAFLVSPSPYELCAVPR

For the molecule `O=C(O)c1ccc(-c2nc(-c3ccccc3)c(-c3cccs3)[nH]2)cc1`, the concentration for a half-maximal effect (EC50) in [1] and in [2] was > 55.7 µM (not active) in each case.
On to `COc1cc(/C=C2\SC(=S)N(NC(=O)c3ccncc3)C2=O)ccc1O`, for which the IC50 in assay [3] is 48.1 µM (active). The EC50 in assay [4] is 7.59 µM (active); in assay [5], 8.56 µM (active). The AC50 in assay [6] is 222 µM (active).
`CCN1CCN(CCCNC(=O)c2cc3cc4ccc(OC)cc4nc3o2)CC1`: the EC50 in assay [7] is on record as 15.9 µM (not active). Further, the AC50 is 26.5 µM (active) in [8], 1.41 µM (inconclusive) in assay [9] and 31.6 µM (inconclusive) in assay [10]. Further, the concentration for half-maximal inhibition (IC50) in assay [11] is 107 µM (active).

For the origin of these results see ChEMBL document CHEMBL1201862, “PubChem BioAssay data set” (2004).
